{
  "source": "patent US20240148674A1",
  "about": "“PHARMACEUTICALLY ACCEPTABLE SALTS OF MESDOPETAM AND USES THEREOF” (priority 2020, published 2024)",
  "key": {"[1]": {"experimental": "The temperature was 25° C. using step intervals of 10% between 0% and 95% RH in two consecutive cycles."}, "[2]": {"test": "Hygroscopicity test, weighed samples kept at varied humidity at 30° C. for one week", "format": "physicochemical", "conditions": "for Weight difference (%): 30° C., one week; for Hygroscopicity, in words: any tested relative humidity", "experimental": "Hygroscopicity test of the L-tartaric salt of [2-(3-fluoro-5-methanesulfonylphenoxy)-ethyl] (propyl)amine was performed by keeping exact weight samples of the salt at varied humidity at 30° C. After one week, the samples were weighed again and based on the original weight the percentage weight difference was calculated."}, "[3]": {"system": "Parkinson's patients with L-DOPA induced dyskinesia (LIDs)", "test": "Human clinical study, 24-hour patient home diaries (good ON time)", "format": "in vivo", "description": "Home diaries have gained wide acceptance as endpoints for clinical development of therapeutics aiming to reduce treatment-related motor complications. Motor fluctuations are associated with compromise in activities of daily living and health-related quality of life. In clinical trials performed by Integrative Research Laboratories Sweden AB patients record their 24-hours motor function in 30-minute intervals, beginning at midnight. For each 30-minute interval the patient rates the state he or she has been in for the past 30 minutes; OFF, ON without troublesome dyskinesia or ON with troublesome dyskinesia. The patient also denoted the time when he or she has been asleep.\nIn general, an “OFF” time reduction or “good ON-time” increase of 1 hour may be considered clinically significant and has been used as an assumption in power calculations in clinical trials. Therefore, it can be assumed that shift towards more “good ON-time” of a minimum of 1-hour daily represents a clinically meaningful effect, considering the total time spent in the daily ON state (ON with and without troublesome dyskinesia) is not negatively affected by the treatment.\nA valid diary is defined as not having more than 2 hours of invalid data entries (4 invalid entries) over a given 24-hour period. An invalid diary entry is defined as more than one entry recorded in each half-hour interval, an unreadable entry, or the absence of an entry in each half-hour interval. The average diary information from 3 valid diaries (if available) for each visit will be used to calculate diary-based efficacy endpoints. If there are only 2 valid diaries for a visit, then the average information from the 2 valid diaries will be used. If only one diary is valid, information from the single valid diary will be used. If no valid diaries were available for a patient visit, then the diary information was considered missing.\nAt run-in and following treatment patients were asked to complete home diaries describing their motor status in 30-minute intervals for 24 hours. […]"}, "[4]": {"system": "unilateral 6-OHDA-lesioned rats", "test": "Rodent unilateral 6-OHDA lesion model of L-DOPA sensitization, rotation test by ROTORAT", "format": "in vivo, Sprague Dawley rats", "conditions": "for Contralateral turns, test compound given alone: without L-DOPA, 0-2.5 h", "experimental": "The unilateral 6-OHDA lesion model is an established animal model of Parkinson's disease (see e.g. Exp. Neurol. 194: 66-75 (2005)). The neurotoxin 6-OH-DA is injected in the medial forebrain bundle (MFB), resulting in depletion of dopamine e.g. in the striatum. Upon repeated administration of L-DOPA, the animals with such a lesion display sensitization to L-DOPA, captured by rotational behaviour measured as associated with the development of LIDs. The effects of IRL790 (as a HCl-salt) on fully established AIMs have been published previously (J. Pharmacol. Exp. Ther. 374: 113-125 (2020)). Thus, in this article the administration of IRL790 was […]. […] The co-administration of said test compound with the L-DOPA was not preceded by treatment with L-DOPA. The clinically used antidyskinetic compound amantadine (as a HCl-salt) together with L-DOPA was used for comparison.\nFor the evaluation of sensitization to L-DOPA the rodent unilateral 6-OH-DA-lesion model was used. Adult 150˜200 g female Sprague Dawley rats (Charles River) were housed in temperature- and humidity-controlled rooms (20° C., 53% humidity) with a 12 h dark/light cycle. The rats had access to standard food pellets and water ad libitum. The experiments were approved by the local ethical committee at Karolinska Institute (Stockholm North Ethical Committee, N1525/2017) and conducted in accordance with the European Communities Council Directive of 24 Nov. 1986 (86/609/EEC).\nExperimental procedures including unilateral 6-OH-DA-lesions and behavioral assessments were carried as follows. Rats were anesthetized using a mixture of ketamine (100 mg/kg, i.p.; Parke-Davis, Boxmeer, The Netherlands) and xylazine (10 mg/kg, i.p.; Bayer, Kiel, Germany), pretreated with a mixture of desipramine (25 mg/kg, i.p.; Sigma-Aldrich) and pargyline (5 mg/kg, i.p.; Sigma-Aldrich) 30 minutes before lesioning to prevent uptake of 6-OHDA into noradrenergic neurons, and to prevent extracellular metabolism of 6-OHDA, respectively. Rats were placed in a stereotaxic frame (David Kopf Instruments, KOPF®, USA) and injected with temgesic (0.1 mg/kg, s.c., Apoteket, Sweden) before surgery; 2 μl 6-OHDA (5 μg/μl in saline containing 0.02% w/v ascorbic acid, Sigma-Aldrich) was injected into the right MFB, stereotaxic coordinates AP: −2.5 mm, ML: −2.0 mm, DV: −8.5 mm vs. bregma and dural surface (The Rat Brain in Stereotaxic Coordinates 6th Edition, George Paxinos and Charles Watson, 2007) in order to selectively lesion dopaminergic cells in the right brain hemisphere. Post-operative analgesia (Temgesic, s.c.) was administered twice within 48 hours after surgery. Two weeks following surgery, rats were treated with apomorphine (1 mg/kg i.p.; Sigma-Aldrich) to verify successful lesioning. […]"}, "[5]": {"system": "immediate early response genes (IEGs) cfos and arc", "test": "Striatal gene expression analysis by qPCR in 6-OHDA-lesioned rats", "format": "in vivo", "experimental": "Data is expressed as relative gene expression and was statistically evaluated by two-way ANOVA (analysis of variance).\nData is expressed as relative gene expression and was statistically evaluated by two-way ANOVA (analysis of variance). * denotes p<0.05, ** denotes p<0.01, and *** denotes p<0.001.\nWhenever L-DOPA was used in this study, it was administered together with benzerazid HCl-salt 7.5 mg/kg i.p, which is a standard procedure when L-DOPA is administered to rats in the unilateral 6-OHDA lesion model. Chronic treatment of four groups of rats was started with either: (1) L-DOPA (10 mg/kg), (2) [2-(3-fluoro-5-methanesulfonyl-phenoxy)ethyl](propyl)amine tartaric acid salt (3 mg/kg s.c.), (3) L-DOPA (10 mg/kg)+[2-(3-fluoro-5-methanesulfonyl-phenoxy)ethyl](propyl)amine tartaric acid salt (3 mg/kg s.c.), or (4) the corresponding vehicle (saline, i.p.) given once daily for 2 weeks. Additionally, two groups of rats were treated with either amantadine HCl salt (40 mg/kg ip), or L-DOPA (10 mg/kg)+amantadine HCl salt (40 mg/kg i.p.), once daily for 14 days. Behavioural assessments were performed on Day 1, Day 7, and Day 14 of chronic treatment. Thus, on Days 1, 7 and 14 contralateral rotations (i.e. rotations in the opposite direction to the side of the 6-OH-DA-lesion) were measured. Contralateral rotations were measured by Rotorat over 2.5 hours after the administration of test compound. […]"}, "[6]": {"conditions": "as disclosed in PCT/EP2020/064046; cited from earlier work"}, "[7]": {"system": "adverse involuntary movements (AIMs)", "conditions": "J. Pharmacol. Exp. Ther. 374: 113-125, July 2020; cited from earlier work"}, "[8]": {"conditions": "once daily 2 weeks, Example 7 3 mg/kg s.c., amantadine HCl salt 40 mg/kg i.p., Day 1, 7, 14"}},
  "note": "Counter-ions that a name gives are not always drawn. Like-named read-outs stand apart in the source and are kept apart here.",
  "data": [
    {"smiles": "CCCNCCOc1cc(F)cc(S(C)(=O)=O)c1.Cl", "note": "[Example 1 of WO 2012/143337, hydrochloric acid salt of [2-(3-fluoro-5-methanesulfonylphenoxy)-ethyl](propyl)amine]", "values": [
      {"measurement": "Weight gained", "setting": "[1]; 95% relative humidity and 25° C., DVS", "result": "approximately 3%"},
      {"measurement": "Hygroscopicity, in words", "setting": "[1]; high relative humidities", "result": "hygroscopic at high relative humidities"}
    ]},
    {"smiles": "CCCNCCOc1cc(F)cc(S(C)(=O)=O)c1", "note": "[Example 7, L-tartaric Acid Salt of [2-(3-fluoro-5-methanesulfonylphenoxy)ethyl](propyl)amine]", "values": [
      {"measurement": "Weight difference (%)", "setting": "[2]; Relative Humidity 0 %", "result": "−0.26", "unit": "%"},
      {"measurement": "Weight difference (%)", "setting": "[2]; Relative Humidity 6 %", "result": 0.00, "unit": "%"},
      {"measurement": "Weight difference (%)", "setting": "[2]; Relative Humidity 11 %", "result": "−0.06", "unit": "%"},
      {"measurement": "Weight difference (%)", "setting": "[2]; Relative Humidity 22 %", "result": 0.12, "unit": "%"},
      {"measurement": "Weight difference (%)", "setting": "[2]; Relative Humidity 33 %", "result": "−0.18", "unit": "%"},
      {"measurement": "Weight difference (%)", "setting": "[2]; Relative Humidity 45 %", "result": "−0.13", "unit": "%"},
      {"measurement": "Weight difference (%)", "setting": "[2]; Relative Humidity 56 %", "result": "−0.15", "unit": "%"},
      {"measurement": "Weight difference (%)", "setting": "[2]; Relative Humidity 73 %", "result": "−0.24", "unit": "%"},
      {"measurement": "Weight difference (%)", "setting": "[2]; Relative Humidity 75 %", "result": "−0.07", "unit": "%"},
      {"measurement": "Weight difference (%)", "setting": "[2]; Relative Humidity 83 %", "result": 0.06, "unit": "%"},
      {"measurement": "Weight difference (%)", "setting": "[2]; Relative Humidity 97 %", "result": "−0.08", "unit": "%"},
      {"measurement": "Hygroscopicity, in words", "setting": "[2]", "result": "very low hygroscopicity"},
      {"measurement": "Hygroscopicity, in words", "setting": "[2]; listed as L-tartaric acid salt", "result": "not hygroscopic at any relative humidities"},
      {"measurement": "Improvement in good ON time (mean values)", "setting": "[3]; 5 mg or less (2.5 mg in some patients) twice-daily (b.i.d.), 9 patients", "result": 2.1, "unit": "h"},
      {"measurement": "Improvement in good ON time (mean values)", "setting": "[3]; 7.5 mg twice-daily (b.i.d.), 8 patients", "result": 5.6, "unit": "h"},
      {"measurement": "Improvement in good ON time (mean values)", "setting": "[3]; 10 mg or more (12.5 mg in some patients) twice-daily (b.i.d.), 20 patients", "result": 1.4, "unit": "h"},
      {"measurement": "Contralateral rotational behavior Day 7 or Day 14 vs Day 1, co-treated with L-DOPA (sensitization)", "setting": "[4]; co-administered with L-DOPA 10 mg/kg once daily 2 weeks, Example 7 3 mg/kg s.c., amantadine HCl salt 40 mg/kg i.p.", "result": "no significant difference"},
      {"measurement": "Contralateral turns, test compound given alone", "setting": "[4]; [8]", "result": "no contralateral turns"},
      {"measurement": "Effect on L-DOPA-induced increase of striatal cfos and arc expression", "setting": "[5]; combination with L-DOPA, 14 days, Example 7 3 mg/kg", "result": "attenuated"}
    ]},
    {"smiles": "N[C@@H](Cc1ccc(O)c(O)c1)C(=O)O", "note": "[L-DOPA, L-3,4-dihydroxyphenylalanine, reference compound]", "values": [
      {"measurement": "Contralateral rotational behavior over time, L-DOPA alone", "setting": "[4]; L-DOPA 10 mg/kg with benzerazid 7.5 mg/kg i.p., once daily 2 weeks, Day 1, 7, 14", "result": "increasing contralateral rotational behavior"},
      {"measurement": "Striatal expression of IEGs cfos and arc, L-DOPA treatment", "setting": "[5]; L-DOPA, 14 days of treatment, relative gene expression", "result": "significantly increased"}
    ]},
    {"smiles": "CCCNCCOc1cc(F)cc(S(C)(=O)=O)c1", "note": "[tartaric acid salt of [2-(3-fluoro-5-methanesulfonylphenoxy)-ethyl] (propyl)amine]", "values": [
      {"measurement": "Hygroscopicity, in words", "setting": "[6]", "result": "non-hygroscopic"}
    ]},
    {"smiles": "NC12CC3CC(CC(C3)C1)C2", "note": "[amantadine HCl salt, amantadine, reference compound]", "values": [
      {"measurement": "Contralateral turns, test compound given alone", "setting": "[4]; [8]", "result": "no contralateral turns"}
    ]},
    {"smiles": "CCCNCCOc1cc(F)cc(S(C)(=O)=O)c1", "note": "[Example 2, [2-(3-fluoro-5-methanesulfonylphenoxy)ethyl](propyl)amine]", "values": [
      {"measurement": "Adverse involuntary movements (AIMs)", "setting": "[7]", "result": "dose-dependently reduced"}
    ]}
  ]
}
